Data: paper PMC2099433, “The binding site for neohesperidin dihydrochalcone at the human sweet taste receptor” (BMC Structural Biology, 2007)

Experiments:
[1] = tested on: receptors that contain the entire rat Tas1r3 or its heptahelical domain; assay: Calcium response, receptors and chimeras with rat Tas1r3 heptahelical domain; format: cell-based, human; conditions: 1 mM NHDC
Excerpt: (§1) In order to elucidate the putative binding site for NHDC, we cotransfected mixtures of plasmid DNAs for the rat and human TAS1R2 and TAS1R3 receptor subunits in HEK293T cells stably expressing the chimeric G-protein G16Gust44 and measured cellular calcium responses by fluorometry following bath application of various sweet tasting compounds. […].
(§2) Figure 1 Chemical structure and calcium responses elicited by neohesperidin dihydrochalcone. (A) Structure of neohesperidin dihydrochalcone. Numbers denote carbon atom positions. (B) Representative calcium traces elicited upon stimulation with different concentrations of neohesperidin dihydrochalcone (NHDC) in HEK293T-G16Gust44 cells cotransfected with DNA for hTAS1R2/hTAS1R3. […]
(§3) The cDNAs for TAS1Rs tagged at the C-terminus with the herpes simplex virus glycoprotein D (HSV) were transiently transfected into HEK293T cells stably expressing the chimeric G-protein subunit G16Gust44 [44] using Lipofectamine 2000 (Invitrogen, Carlsbad, CA) according to the manufacturer's protocol. […] We monitored calcium mobilization following receptor stimulation with sweet tastants by an automated fluorometric imaging plate reader (FLIPR, Molecular Devices, Sunnyvale, CA). […] The obtained calcium signals were corrected for the response of mock transfected cells and normalized to the fluorescence of cells prior to the application of the stimulus using ΔF/F = (F-F0)/F0. […]

[2] = tested on: rat Tas1r3 with heptahelical domain of human TAS1R3, coexpressed with rat Tas1r2; assay: Calcium response, chimeric receptor; format: cell-based; conditions: 1 mM NHDC
Excerpt: as §1, §2, §3

COc1ccc(CCC(=O)c2c(O)cc(O[C@@H]3O[C@H](CO)[C@@H](O)[C@H](O)[C@H]3O[C@@H]3O[C@@H](C)[C@H](O)[C@@H](O)[C@H]3O)cc2O)cc1O [NHDC, neohesperidin dihydrochalcone]
calcium response [1]: did not respond to NHDC
calcium response [2]: sensitive for NHDC
